# Where two headings read alike, the source gives them in different places.
# Experiments:
# CYP3A [1] = assay: CYP3A induction measured as increase in rate of ethosuximide clearance after 8-day pretreatment; format: in vivo, rats; conditions: for CYP3A activity induced compared with clotrimazole (Compound (III)): measured by ethosuximide clearance, in words; for increase in ethosuximide clearance: 8-day pretreatment, rats
# Protocol: FIG. 1 represents a fold increase in ethosuxinide clearances following an 8-day pretreatment schedule of the azoles;
# Using clotrimazole (Compound (III)) as a lead compound, the effect of structure on the ability of a compound to induce CYP3A activity was determined, as measured by the test compound's ability to increase the rate of ethosuximide clearance. Over 40 structural modifications of clotrimazole were tested and significant differences in the ability to induce CYP3A activity was observed.
# Analysis of the effect of substitution on the ability of a compound to induce CYP3A activity enables us to propose requirements for the induction in vivo. First, a heteroaromatic nucleus containing basic nitrogen must be present. Significant activity (i.e. >2 fold increase in ethosuximide clearance) is achieved only using substituted imidazoles, 2-methylimidazole (XIV), or in one case, pyridine (XVI). […] A variety of substituents were introduced into a single aryl ring of triphenylmethylimidazole. Most of the monosubstituted 1-triphenylmethylimidazoles produced inducing activity lower than that measured for the unsubstituted member of the series, regardless of the nature of the substituent. High magnitude CYP3A induction (i.e. >3-fold increase in ethosuximide clearance was found in only four substituted triphenylmethyl imidazoles: (XXXI)(meta-chloro). (XXXIII)(para chloro), (XXXVIII)(metafluoro).
# HDL2 = assay: HDL2/total cholesterol ratio after administration over several days; format: in vivo; conditions: pretreated rats; in words
# Protocol: (§1) A correlation between induction of CYP3A and an increase in serum HDL-cholesterol was supported by our early experiments in which selective CYP3A inducers (Clotrimazole, dexamethasone) were administered to rats over a period of several days, and the effect on liver/body weight ratios and on HDL-cholesterol/total cholesterol ratios determined. […] A positive relationship between cytochrome P450 induction and improvement of serum lipid levels was also found.
# [2] = Liver/body weight ratio after administration over several days; format: in vivo; conditions: rats, indirect sign of increased cytochrome P450 content
# Protocol: as §1
# HDL-cholesterol [3] = assay: Serum HDL-cholesterol level after feeding of the compound over 8 days; format: in vivo; conditions: feeding over 8 days, rats; in words
# From the text: FIG. 2 represents a fold increase of HDL-cholesterol per compound;
# We have invented a family of related compounds which cause a significant pharmacological elevation of serum high density lipoprotein (HDL-cholesterol) concentration from 20% to greater than 200%. […] The effect on HDL cholesterol was paralleled by an elevation in the level of apoprotein A1 (a protein component of HDL) and by elevation of apo A1 messenger RNA in treated animals.
# The effect of CYP3A inducers on levels of HDL-cholesterol was determined by administration of the compound by feeding over 8 days followed by sacrifice of the animal and determination of HDL-cholesterol levels. The effects of benzylimidazole (IV), clotrimazole, the five high magnitude CYP3A inducers and four compounds showing intermediate CYP3A inducing activity were evaluated. […] The significant linear correlation between the increase in HDL-cholesterol and the increase in ethosuximide clearance is shown in FIG. 3, and supports the belief that the activities are related.
# CYP3A [4] = conditions: rats; cited from earlier work
# CYP3A [5] = conditions: human hepatocytes; cited from earlier work
# apoA1 = conditions: rats; cited from earlier work
# HDL-cholesterol [6] = conditions: rats; cited from earlier work
# cytochromes P450 = conditions: cited from earlier work
# HDL cholesterol = conditions: prospective experiments; cited from earlier work
# HDL-cholesterol [7] = conditions: epileptic subjects vs matched patients without epilepsy; phenobarbital and/or phenytoin; cited from earlier work
structure (smiles),measurement,setting,value
Fc1ccc(C(c2ccccc2)(c2ccccc2)n2ccnc2)cc1 [XXXIX],CYP3A activity induced compared with clotrimazole (Compound (III)),CYP3A [1],significantly more CYP3A activity than did the lead compound
Clc1cccc(C(c2ccccc2)(c2ccccc2)n2ccnc2)c1 [XXXI],increase in ethosuximide clearance,CYP3A [1],> 3 fold
same,CYP3A activity induced compared with clotrimazole (Compound (III)),CYP3A [1],significantly more CYP3A activity than did the lead compound
C[C@@H]1C[C@H]2[C@@H]3CCC4=CC(=O)C=C[C@]4(C)[C@@]3(F)[C@@H](O)C[C@]2(C)[C@@]1(O)C(=O)CO [dexamethasone],HDL2/total cholesterol ratio,HDL2,noteworthy improvement in HDL2/total cholesterol ratios
same,liver/body weight ratio,[2],markedly increased liver/body weight ratios
Clc1ccccc1C(c1ccccc1)(c1ccccc1)n1ccnc1 [III],HDL2/total cholesterol ratio,HDL2,noteworthy improvement in HDL2/total cholesterol ratios
same,liver/body weight ratio,[2],markedly increased liver/body weight ratios
same,effect on HDL-cholesterol,HDL-cholesterol [3],significant effect on HDL-cholesterol
same,inducer of CYP3A,CYP3A [4],relatively selective inducer
same,inducer of CYP3A,CYP3A [5],relatively selective inducer
CCC1(c2ccccc2)C(=O)NC(=O)NC1=O [phenobarbital],apoA1,apoA1,increase HDL-cholesterol and apoA1 in rats
same,HDL-cholesterol,HDL-cholesterol [6],increase HDL-cholesterol
same,inducer of the cytochromes P450,cytochromes P450,known to be an inducer of the cytochromes P450
same,total serum HDL cholesterol/total cholesterol ratio,HDL cholesterol,increases in total serum HDL cholesterol/total cholesterol ratios
same,levels of HDL-cholesterol,HDL-cholesterol [7],higher levels of HDL-cholesterol
Fc1cccc(C(c2ccccc2)(c2ccccc2)n2ccnc2)c1 [XXXVIII],increase in ethosuximide clearance,CYP3A [1],> 3 fold
same,CYP3A activity induced compared with clotrimazole (Compound (III)),CYP3A [1],significantly more CYP3A activity than did the lead compound
Clc1ccc(C(c2ccccc2)(c2ccccc2)n2ccnc2)cc1 [XXXIII],increase in ethosuximide clearance,CYP3A [1],> 3 fold
same,CYP3A activity induced compared with clotrimazole (Compound (III)),CYP3A [1],significantly more CYP3A activity than did the lead compound
"c1ccc(C(c2ccccc2)(c2ccccc2)n2ccnc2)cc1 [V, 1-triphenylmethylimidazole]",CYP3A activity induced compared with clotrimazole (Compound (III)),CYP3A [1],significantly more CYP3A activity than did the lead compound
O=C1NC(=O)C(c2ccccc2)(c2ccccc2)N1 [phenytoin],levels of HDL-cholesterol,HDL-cholesterol [7],higher levels of HDL-cholesterol
c1ccc(Cc2ccncc2)cc1 [XVI],increase in ethosuximide clearance,CYP3A [1],> 2 fold
Cc1nccn1C(c1ccccc1)(c1ccccc1)c1ccccc1 [XIV],increase in ethosuximide clearance,CYP3A [1],> 2 fold
"c1ccc(C(c2ccccc2)n2ccnc2)cc1 [XIII, 1-diphenylmethylimidazole]",CYP3A inducing activity,"CYP3A [1]; structure-activity statement in words, ethosuximide clearance",progressively lost

# From patent publication US6103733A, “Method for increasing HDL cholesterol levels using heteroaromatic phenylmethanes” (priority 1998, dated 2000)
